Source: patent US9676780B2, “Piperazine-substituted [1,2,4]triazolo[1,5-C]quinazolin-5-amine compounds with A2A antagonist properties” (MERCK SHARP & DOHME CORP., priority 2012, dated 2017)

Target: T1, human A2a receptor (Homo sapiens, UniProt P29274)
T1 construct: purchased Perkin-Elmer RBHA2AM400UA; host or cells: HEK293
Assay: A2a receptor competition binding assay (Scintillation Proximity, tritiated radioligand)
Settings: membranes from HEK293 cells expressing the human A2a receptor; 0.5 nM tritiated ligand; SPA beads; one hour at room temperature; read-out: A2a EC50
Method: Binding affinities of compounds of the invention for the human A2a receptor were determined in a competition binding assay using Scintillation Proximity technology. […] The beads were then allowed to settle to the bottom of the wells for 1 hr, after which the membrane-associated radioactivity was determined by scintillation counting in a TopCount microplate reader. Ki values were determined using the Cheng-Prusoff equation.
• HEK293 cells expressing the human, rat, dog or monkey adenosine 2a receptor (Purchased from Perkin-Elmer # RBHA2AM400UA). • The Tritiated compound was prepared in-house by MRL Radiochemistry according to published methods. • Wheatgerm agglutinin-coated yttrium silicate SPA beads (GE Healthcare #RPNQ0023). […] This is a 2.5× solution. The final concentration in the assay is 0.5 nM. Calculate the concentration by counting two 5 ul aliquots. Membrane Preparation • Use 0.25 ug of membrane/well. Dilute membranes to 9.7 ug/ml in assay buffer. Treat with 20 ug/ml adenosine deaminase (ADA) for 15 minutes at room temperature to degrade endogenous adenosine. Membrane-Bead Mixture • Use 100 ug/well wheatgerm agglutinin-coated yttrium silicate SPA beads. • Mix ADA-treated membranes and SPA beads together for 30 min prior to assay. […] Incubate for one hour at room temperature with agitation. • Include total binding (assay buffer+1% DMSO) and non-specific binding (CGS15943, 1 uM) wells. Counting • Allow the beads to settle for one hour. • Count in TopCount. Calculations • A curve fitting program (i.e., Prism, Activity Base, Chemcart) is used to determine the EC50.
The Ki value is calculated using the Cheng-Prusoff equation. Ki=EC50/(1+(radioligand concentration/Kd))

T1 sequence (P29274 whole entry): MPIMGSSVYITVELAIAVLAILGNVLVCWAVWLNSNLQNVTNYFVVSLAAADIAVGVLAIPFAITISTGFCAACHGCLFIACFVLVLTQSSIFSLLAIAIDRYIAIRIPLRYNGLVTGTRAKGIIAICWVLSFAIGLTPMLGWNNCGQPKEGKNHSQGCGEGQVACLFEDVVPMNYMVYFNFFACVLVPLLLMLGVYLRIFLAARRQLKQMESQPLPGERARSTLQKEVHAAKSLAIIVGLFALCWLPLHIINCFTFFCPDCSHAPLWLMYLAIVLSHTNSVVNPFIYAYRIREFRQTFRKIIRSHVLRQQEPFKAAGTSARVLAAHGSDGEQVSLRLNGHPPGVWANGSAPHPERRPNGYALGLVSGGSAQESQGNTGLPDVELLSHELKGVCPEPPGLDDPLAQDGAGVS

| Structure (SMILES) | EC50 |
| --- | --- |
| COc1cccc2c1nc(N)n1nc(CC(=O)N3CCN(c4ccc(F)cc4)C[C@H]3C)nc21 [Ex-154] | 2.6 nM |
| COc1cccc2c1nc(N)n1nc(CN3CCN(Cc4ccc(N5CCCC5=O)cc4)CC3C)nc21 (stereo not drawn) [Ex-33] | 35.9 nM |
| COc1cccc2c1nc(N)n1nc(CN3CCN(c4ccc(F)cc4)[C@@H](C)C3)nc21 [Ex-181] | 19.9 nM |
| COc1cccc2c1nc(N)n1nc(CN3CCN(Cc4ccc(C)cc4)C(=O)C3)nc21 [Ex-210] | 7.7 nM |
| COc1cccc2c1nc(N)n1nc(C(C)N3CCN(c4ccc(F)cc4)CC3C)nc21 (stereo not drawn) [Ex-49] | 4.9 nM |
| COc1cccc2c1nc(N)n1nc(CN3CCN(c4cc(C(F)(F)F)cc(C(F)(F)F)c4)CC3C)nc21 (stereo not drawn) [Ex-120] | 20.7 nM |
| COc1cccc2c1nc(N)n1nc(CN3CCN(c4cc(F)cc(Cl)c4)CC3C)nc21 (stereo not drawn) [Ex-101] | 4.95 nM |
| COc1ccc(N2CCN(Cc3nc4c5cc(F)cc(OC)c5nc(N)n4n3)CC2(C)C)cc1 [Ex-184] | 16.4 nM |
| CC[C@@H]1CN(c2ccc(F)cc2)CCN1Cc1nc2c3cccc(OC)c3nc(N)n2n1 [Ex-45] | 5.7 nM |
| COc1cccc2c1nc(N)n1nc(C(C)N3CCN(c4ccc(F)cc4)C[C@H]3C)nc21 (stereo partly drawn) [Ex-50, 2-{1-[(2R)-4-(4-fluorophenyl)-2-methylpiperazin-1-yl]ethyl}-7-methoxy[1,2,4]triazolo[1,5-c]quinazolin-5-amine] | 139 nM |
| COc1cc(F)cc2c1nc(N)n1nc(CN3CC4CCC(C3)N4Cc3ccccc3)nc21 [Ex-207] | 145 nM |
| COc1cc(N2CCN(Cc3nc4c5cccc(OC)c5nc(N)n4n3)C(C)C2)ccc1Cl (stereo not drawn) [Ex-125] | 1.03 nM |
| COc1cc(F)cc2c1nc(N)n1nc(CN3CCN(c4ccc(F)cc4)CC3C)nc21 (stereo not drawn) [Ex-37] | 48.9 nM |
| COc1cccc2c1nc(N)n1nc(CN3CCN(c4noc(C(C)(C)C)n4)CC3C)nc21 (stereo not drawn) [Ex-88] | 22.2 nM |
| COc1cccc2c1nc(N)n1nc(CN3CCN(c4nnc(C)[nH]4)CC3C)nc21 (stereo not drawn) [Ex-84] | 57.2 nM |
| COc1cc(Cl)cc(N2CCN(Cc3nc4c5cccc(OC)c5nc(N)n4n3)C(C)C2)c1 (stereo not drawn) [Ex-103] | 5.56 nM |
| COc1cccc2c1nc(N)n1nc(CN3CCN(c4noc(C)n4)CC3C)nc21 (stereo not drawn) [Ex-52] | 48.5 nM |
| COc1cccc2c1nc(N)n1nc(CN3CCN(Cc4c(F)cccc4F)CC3C)nc21 (stereo not drawn) [Ex-24] | 14.4 nM |
| COc1cc(F)ccc1N1CCN(Cc2nc3c4cccc(OC)c4nc(N)n3n2)C(C)C1 (stereo not drawn) [Ex-96] | 3.41 nM |
| COc1cccc2c1nc(N)n1nc(C(=O)N3CCN(CC(F)(F)F)CC3C)nc21 (stereo not drawn) [Ex-147] | 6.6 nM |
| COc1cccc2c1nc(N)n1nc(CN3CCN(c4ccc(F)cc4)CC3(C)C)nc21 [Ex-183] | 5 nM |
| COc1cccc2c1nc(N)n1nc(CN3CCN(c4noc(C5CC5)n4)CC3C)nc21 (stereo not drawn) [Ex-53] | 15.9 nM |
| COc1cccc2c1nc(N)n1nc(CN3CCN(c4ccc(Cl)cn4)CC3C)nc21 (stereo not drawn) [Ex-134] | 4.57 nM |
| COc1cccc2c1nc(N)n1nc(CN3CCN(c4ccc(F)c(C)n4)CC3C)nc21 (stereo not drawn) [Ex-136] | 11.4 nM |
| COc1cccc2c1nc(N)n1nc(CN3CCN(c4cnccc4C)CC3C)nc21 (stereo not drawn) [Ex-144] | 20.1 nM |

| Structure (SMILES) | EC50 |
| --- | --- |
| COc1cccc2c1nc(N)n1nc(CN3CCN(c4nccnc4C)CC3C)nc21 (stereo not drawn) [Ex-135] | 10.7 nM |
| COc1cccc2c1nc(N)n1nc(CN3CCN(c4noc(=O)[nH]4)CC3C)nc21 (stereo not drawn) [Ex-82] | 628 nM |
| COc1cccc2c1nc(N)n1nc(CN3CCN(c4ncc(C(=O)O)s4)CC3C)nc21 (stereo not drawn) [Ex-81] | 68.2 nM |
| COc1ccc(Cl)c(N2CCN(Cc3nc4c5cccc(OC)c5nc(N)n4n3)C(C)C2)c1 (stereo not drawn) [Ex-121] | 13.2 nM |
| COc1cccc2c1nc(N)n1nc(CN3CCN(c4ccc5c(cnn5C)c4)CC3C)nc21 (stereo not drawn) [Ex-130] | 0.898 nM |
| COc1cccc2c1nc(N)n1nc(CN3CCN(c4ccc(F)cc4)C[C@H]3C(C)C)nc21 [Ex-44] | 3.6 nM |
| COCCOc1cccc(N2CCN(Cc3nc4c5cccc(OC)c5nc(N)n4n3)C3(CC3)C2)c1 [Ex-190] | 6.7 nM |
| COc1cccc2c1nc(N)n1nc(CN3CCN(c4cc(Cl)cc(Cl)c4)CC3C)nc21 (stereo not drawn) [Ex-124] | 2.82 nM |
| COc1cc(N2CCN(Cc3nc4c5cccc(OC)c5nc(N)n4n3)C(C)C2)ccc1F (stereo not drawn) [Ex-115] | 1.39 nM |
| COc1cccc2c1nc(N)n1nc(CN3CCN(c4ccncc4F)CC3C)nc21 (stereo not drawn) [Ex-104] | 23.1 nM |
| COc1cccc2c1nc(N)n1nc(CN3CCN(c4nccs4)CC3C)nc21 (stereo not drawn) [Ex-51] | 73.8 nM |
| COc1cccc2c1nc(N)n1nc(CN3CCN(c4ccc(F)cn4)[C@@H](C)C3)nc21 [Ex-182] | 10.2 nM |
| COCCN1CCN(Cc2nc3c4cccc(OC)c4nc(N)n3n2)C2(CC2)C1 [Ex-193] | 128 nM |
| COc1cccc2c1nc(N)n1nc(CN3CCN(c4cc(C#N)ccn4)CC3C)nc21 (stereo not drawn) [Ex-114] | 12.3 nM |
| COc1cccc2c1nc(N)n1nc(CN3CCN(c4ccc5c(c4)c(C)nn5C)CC3C)nc21 (stereo not drawn) [Ex-128] | 0.964 nM |
| COc1cccc2c1nc(N)n1nc(CN3CCN(c4ccccc4C(F)(F)F)CC3C)nc21 (stereo not drawn) [Ex-47] | 59.2 nM |
| COc1cccc2c1nc(N)n1nc(CN3CCN(c4ccc(C)cn4)CC3C)nc21 (stereo not drawn) [Ex-138] | 14.3 nM |
| C[C@@H]1CN(c2ccc(F)cc2)CCN1Cc1nc2c3cccc(C(F)(F)F)c3nc(N)n2n1 [Ex-155] | 136 nM |
| COc1cccc2c1nc(N)n1nc(CN3CCN(CCF)CC34CC4)nc21 [Ex-192] | 153 nM |
| COc1cc(F)cc2c1nc(N)n1nc(CN3CCN(Cc4ccc(F)cc4)C(=O)C3)nc21 [Ex-211] | 9.9 nM |
| COc1cccc2c1nc(N)n1nc(CN3CCN(c4cccc(C)n4)CC3C)nc21 (stereo not drawn) [Ex-99] | 46.3 nM |
| COc1cccc2c1nc(N)n1nc(CN3CCN(c4nncs4)CC3C)nc21 (stereo not drawn) [Ex-75] | 47.4 nM |
| COc1cccc2c1nc(N)n1nc(CN3CCN(c4ncccc4C(F)(F)F)CC3C)nc21 (stereo not drawn) [Ex-148] | 18 nM |
| COc1cccc2c1nc(N)n1nc(CN3CCN(Cc4ccc(N5CCCC5)cc4)CC3C)nc21 (stereo not drawn) [Ex-31] | 49.1 nM |
| COc1cccc2c1nc(N)n1nc(CN3CCN(c4ccc5ccccc5c4)CC3C)nc21 (stereo not drawn) [Ex-72] | 6.7 nM |

| Structure (SMILES) | EC50 |
| --- | --- |
| COc1cccc2c1nc(N)n1nc(CN3CCN(c4ccc(C(F)(F)F)cn4)CC3C)nc21 (stereo not drawn) [Ex-40] | 22.6 nM |
| COc1cccc2c1nc(N)n1nc(CN3CCN(c4ncns4)CC3C)nc21 (stereo not drawn) [Ex-89] | 72.2 nM |
| COc1cccc2c1nc(N)n1nc(CN3CCN(Cc4cccc(Cl)c4F)CC3C)nc21 (stereo not drawn) [Ex-27] | 6.8 nM |
| COc1ccccc1N1CCN(Cc2nc3c4cccc(OC)c4nc(N)n3n2)CC1(C)C [Ex-187] | 5.8 nM |
| COc1cccc2c1nc(N)n1nc(CN3CCN(S(=O)(=O)C4CC4)CC34CC4)nc21 [Ex-194] | 24.8 nM |
| COc1cccc2c1nc(N)n1nc(CN3CCN(c4cccc(S(C)(=O)=O)c4)CC3C)nc21 (stereo not drawn) [Ex-143] | 13.9 nM |
| COc1cccc2c1nc(N)n1nc(CN3CCN(C(=O)c4nc(C5CC5)no4)CC3C)nc21 (stereo not drawn) [Ex-90] | 53.5 nM |
| COc1cccc2c1nc(N)n1nc(CN3CCN(c4ccncc4C(F)(F)F)CC3C)nc21 (stereo not drawn) [Ex-100] | 29.4 nM |
| COc1ccc(CN2CCN(Cc3nc4c5cccc(OC)c5nc(N)n4n3)CC2=O)cc1 [Ex-209] | 9.4 nM |
| COc1cccc2c1nc(N)n1nc(CN3CCN(c4ccccc4Cl)CC3C)nc21 (stereo not drawn) [Ex-58] | 12.4 nM |
| COc1cccc2c1nc(N)n1nc(CN3CCN(c4cc(C)ccn4)CC3C)nc21 (stereo not drawn) [Ex-98] | 39.7 nM |
| COc1cccc2c1nc(N)n1nc(CN3CCN(c4ccc(F)cc4)CC3C(F)(F)F)nc21 (stereo not drawn) [Ex-177] | 12.7 nM |
| COc1cccc2c1nc(N)n1nc(CN3CCN(c4ccc(F)cc4)C[C@H]3C3CC3)nc21 [Ex-43] | 2.11 nM |
| COc1cccc2c1nc(N)n1nc(CN3CCN(c4cnn(CC(C)(C)C)c4)CC3C)nc21 (stereo not drawn) [Ex-140] | 4.93 nM |
| COc1cccc2c1nc(N)n1nc(CN3CCN(c4c(C)nn(C)c4C)CC3C)nc21 (stereo not drawn) [Ex-129] | 11.6 nM |
| COc1cccc2c1nc(N)n1nc(CN3CCN(c4nnc(C)s4)CC3C)nc21 (stereo not drawn) [Ex-74] | 31.8 nM |
| Cc1noc2cc(F)c(N3CCN(Cc4nc5c6ccccc6nc(N)n5n4)CC3)cc12 [Ex-160] | 343 nM |
| COc1cccc2c1nc(N)n1nc(CN3CCN(c4ccc(F)cc4)CC34CC4)nc21 [Ex-191] | 8.2 nM |
| COc1cccc2c1nc(N)n1nc(CN3CCN(Cc4cccc(C)n4)CC3C)nc21 (stereo not drawn) [Ex-18] | 26.9 nM |
| COc1cccc2c1nc(N)n1nc(CN3CCN(c4ccc(F)cc4)CC3C(F)F)nc21 (stereo not drawn) [Ex-175] | 5.6 nM |
| COc1cc(F)cc2c1nc(N)n1nc(CN3CCN(c4ccc(C(F)(F)F)cn4)CC3C)nc21 (stereo not drawn) [Ex-42] | 28.3 nM |
| COc1cccc2c1nc(N)n1nc(CN3CCN(c4ccc(C(F)(F)F)c(C(F)(F)F)c4)CC3C)nc21 (stereo not drawn) [Ex-117] | 12.7 nM |
| COc1cc(N2CCN(Cc3nc4c5cccc(OC)c5nc(N)n4n3)C(C)C2)ccn1 (stereo not drawn) [Ex-105] | 16.8 nM |
| COc1cccc2c1nc(N)n1nc(CN3CCN(c4ccc(OCC(F)F)cc4)CC3C)nc21 (stereo not drawn) [Ex-151] | 2.22 nM |
| COc1cccc2c1nc(N)n1nc(CN3CCN(C(C)c4ccc(F)cc4F)CC3C)nc21 (stereo not drawn) [Ex-93] | 4.6 nM |
